Test results reported in patent publication US4363805A, “Aminodesoxy-1.4;3.6-dianhydrohexitol nitrates and pharmaceutical composition” (Firma Willmar Schwabe, priority 1980, dated 1982).

Legend:
[1] = system: mongrel cats; assay: Inotropic and heart-circulatory effectiveness on narcotised cats, intravenous; type: in vivo, cat; conditions: 6 animals
[2] = system: narcotised guinea pigs; assay: Blood pressure experiments on guinea pigs, i.v.; type: in vivo, guinea pig
[3] = Acute toxicity, intravenous, mice; type: in vivo; conditions: mouse, in vivo; intravenous, within 24 hours; read-out: Evaluated LD50-range
[4] = system: female NMRI-albino mice; assay: Acute toxicity, intravenous, mice; type: in vivo; conditions: within 24 hours
[5] = 0.25 mg/kg i.v., before administration

SMILES: CCOc1ccccc1OCC(O)CN[C@H]1CO[C@H]2[C@@H]1OC[C@@H]2O[N+](=O)[O-] (stereo partly drawn) [Example 47, 5-[2-Hydroxy-3-(2-ethoxyphenoxy)-propylamino]-5-desoxy-1.4;3.6-dianhydro-L-iditol 2-nitrate]
- blood pressure before [1, 5]: 125.7 mm.Hg
- dp/dt (inotropism) before [1, 5]: 8333 mm.Hg/sec
- heart frequency before [1, 5]: 187.3 min⁻¹
- blood pressure WD ([1]; 0.25 mg/kg i.v.): 3.0 min
- blood pressure after ([1]; 0.25 mg/kg i.v.): 121.7 mm.Hg
- blood pressure Δ ([1]; 0.25 mg/kg i.v.): -4.0 mm.Hg
- dp/dt (inotropism) after ([1]; 0.25 mg/kg i.v.): 7433 mm.Hg/sec
- dp/dt (inotropism) Δ ([1]; 0.25 mg/kg i.v.): -900 mm.Hg/sec
- dp/dt WD ([1]; 0.25 mg/kg i.v.): 3.7 min
- heart frequency after ([1]; 0.25 mg/kg i.v.): 188.7 min⁻¹
- heart frequency Δ ([1]; 0.25 mg/kg i.v.): +1.4 min^-1
- blood pressure WD ([1]; 0.50 mg/kg i.v.): 5.7 min
- blood pressure after ([1]; 0.50 mg/kg i.v.): 114.2 mm.Hg
- blood pressure Δ ([1]; 0.50 mg/kg i.v.): -11.3 mm.Hg
- dp/dt (inotropism) after ([1]; 0.50 mg/kg i.v.): 7150 mm.Hg/sec
- dp/dt (inotropism) Δ ([1]; 0.50 mg/kg i.v.): -1417 mm.Hg/sec
- dp/dt WD ([1]; 0.50 mg/kg i.v.): 9.5 min
- heart frequency after ([1]; 0.50 mg/kg i.v.): 196.0 min⁻¹
- heart frequency Δ ([1]; 0.50 mg/kg i.v.): +0.3 min^-1
- blood pressure WD ([1]; 1.00 mg/kg i.v.): 8.2 min
- blood pressure after ([1]; 1.00 mg/kg i.v.): 100.8 mm.Hg
- blood pressure Δ ([1]; 1.00 mg/kg i.v.): -24.3 mm.Hg
- dp/dt (inotropism) after ([1]; 1.00 mg/kg i.v.): 5067 mm.Hg/sec
- dp/dt (inotropism) Δ ([1]; 1.00 mg/kg i.v.): -2983 mm.Hg/sec
- dp/dt WD ([1]; 1.00 mg/kg i.v.): 10.9 min
- heart frequency after ([1]; 1.00 mg/kg i.v.): 187.0 min⁻¹
- heart frequency Δ ([1]; 1.00 mg/kg i.v.): -5.0 min⁻¹
- blood pressure WD ([1]; 2.50 mg/kg i.v.): > 9.0 min
- blood pressure after ([1]; 2.50 mg/kg i.v.): 79.5 mm.Hg
- blood pressure Δ ([1]; 2.50 mg/kg i.v.): -45.2 mm.Hg
- dp/dt (inotropism) after ([1]; 2.50 mg/kg i.v.): 2933 mm.Hg/sec
- dp/dt (inotropism) Δ ([1]; 2.50 mg/kg i.v.): -4500 mm.Hg/sec
- dp/dt WD ([1]; 2.50 mg/kg i.v.): > 10 min
- heart frequency after ([1]; 2.50 mg/kg i.v.): 171.7 min⁻¹
- heart frequency Δ ([1]; 2.50 mg/kg i.v.): -20.3 min⁻¹
- blood pressure after ([2]; 0.25 mg/kg i.v.): 41.25 ± 2.78 mm.Hg
- blood pressure Δ ([2]; 0.25 mg/kg i.v.): -5.75 mm.Hg
- blood pressure before [2, 5]: 47.00 ± 3.39 mm.Hg
- blood pressure after ([2]; 1.00 mg/kg i.v.): 33.75 ± 2.02 mm.Hg
- blood pressure Δ ([2]; 1.00 mg/kg i.v.): -10.75 mm.Hg
- blood pressure after ([2]; 2.50 mg/kg i.v.): 25.75 ± 1.31 mm.Hg
- blood pressure Δ ([2]; 2.50 mg/kg i.v.): -13.75 mm.Hg

SMILES: O=[N+]([O-])O[C@H]1CO[C@H]2[C@@H]1OC[C@@H]2NCCCOc1cccc(C(F)(F)F)c1 [Example 58, 5-[3-(3-Trifluoromethylphenoxy)-propylamino]-5-desoxy-1.4;3.6-dianhydro-L-iditol 2-nitrate]
- LD50 at 24 h [3]: ~100 mg/kg
- Frequency of death ([4]; 100 mg/kg i.v.): 7/12

SMILES: COc1cccc(OC)c1OCCCN[C@H]1CO[C@H]2[C@@H]1OC[C@@H]2O[N+](=O)[O-] [Example 65, 5-[3-(2,6-Dimethoxyphenoxy)-propylamino]-5-desoxy-1.4;3.6-dianhydro-L-iditol 2-nitrate]
- LD50 at 24 h [3]: ~50 mg/kg
- Frequency of death ([4]; 50 mg/kg i.v.): 4/10
- Frequency of death ([4]; 100 mg/kg i.v.): 10/10
- Frequency of death ([4]; 200 mg/kg i.v.): 3/3

SMILES: COc1cc(OC)cc(OCCCN[C@H]2CO[C@H]3[C@@H]2OC[C@@H]3O[N+](=O)[O-])c1 [Example 66, 5-[3-(3,5-Dimethoxyphenoxy)-propylamino]-5-desoxy-1.4;3.6-dianhydro-L-iditol 2-nitrate]
- LD50 at 24 h [3]: 100 to 200 mg/kg
- Frequency of death ([4]; 100 mg/kg i.v.): 2/10
- Frequency of death ([4]; 200 mg/kg i.v.): 3/3

SMILES: COc1cccc(OCCCN[C@H]2CO[C@H]3[C@@H]2OC[C@@H]3O[N+](=O)[O-])c1OC [Example 67, 5-[3-(2,3-Dimethoxyphenoxy)-propylamino]-5-desoxy-1.4;3.6-dianhydro-L-iditol 2-nitrate]
- LD50 at 24 h [3]: ~70 mg/kg
- Frequency of death ([4]; 50 mg/kg i.v.): 0/10
- Frequency of death ([4]; 100 mg/kg i.v.): 3/3
- Frequency of death ([4]; 200 mg/kg i.v.): 3/3

SMILES: O=[N+]([O-])O[C@H]1CO[C@H]2[C@@H]1OC[C@@H]2NCCCOc1ccc(Cl)cc1 [Example 68, 5-[3-(4-Chlorophenoxy)-propylamino]-5-desoxy-1.4;3.6-dianhydro-L-iditol 2-nitrate]
- LD50 at 24 h [3]: ~100 mg/kg
- Frequency of death ([4]; 100 mg/kg i.v.): 4/9

SMILES: O=[N+]([O-])O[C@H]1CO[C@H]2[C@@H]1OC[C@@H]2NCCCOc1ccccc1Cl [Example 69, 5-[3-(2-Chlorophenoxy)-propylamino]-5-desoxy-1.4;3.6-dianhydro-L-iditol 2-nitrate]
- LD50 at 24 h [3]: 50 to 100 mg/kg
- Frequency of death ([4]; 50 mg/kg i.v.): 0/10
- Frequency of death ([4]; 100 mg/kg i.v.): 3/6

SMILES: O=[N+]([O-])O[C@H]1CO[C@H]2[C@@H]1OC[C@@H]2NCCCOc1ccc(Cl)cc1Cl [Example 72, 5-[3-(2,4-Dichlorophenoxy)-propylamino]-5-desoxy-1.4;3.6-dianhydro-L-iditol2-nitrate]
- LD50 at 24 h [3]: > 100 mg/kg
- Frequency of death ([4]; 100 mg/kg i.v.): 0/6

SMILES: CC(=O)Nc1ccc(OCCCN[C@H]2CO[C@H]3[C@@H]2OC[C@@H]3O[N+](=O)[O-])cc1 [Example 73, 5-[3-(4-Acetamidophenoxy)-propylamino]-5-desoxy-1.4;3.6-dianhydro-L-iditol 2-nitrate]
- LD50 at 24 h [3]: > 200 mg/kg
- Frequency of death ([4]; 100 mg/kg i.v.): 0/3
- Frequency of death ([4]; 200 mg/kg i.v.): 0/3
